Experiments:
[1] = First order rate data for the hydrolysis of compound in 0.1 M hydrochloric acid pH 1 hydrolysis medium; Half-life in minutes; format: ADME
[2] = First order rate data for the hydrolysis of compound in 0.05 M phosphate buffer pH 7.4 hydrolysis medium; Half-life in minutes; format: ADME
[3] = First order rate data for the hydrolysis of compound in dog plasma hydrolysis medium; Half-life in minutes; format: ADME, Canis lupus familiaris
[4] = First order rate data for the hydrolysis of compound in rat plasma hydrolysis medium; Half-life in minutes; format: ADME
[5] = First order rate data for the hydrolysis of compound in 0.1 M hydrochloric acid pH 1 hydrolysis medium (adinotes no detectable hydrolysis after 48 h); Half-life in minutes; format: ADME

half-life [1]	half-life [2]	half-life [3]	half-life [4]	half-life [5]	Compound
53 h	3.45 h	0.233 h	0.0333 h	–	COc1ccc(-c2oc(=O)oc2COC(=O)NCCc2ccc(OC)c(OC)c2)cc1
–	4.3 h	–	0.183 h	> 50 h	COc1ccc(CCNC(=O)OCc2oc(=O)oc2C)cc1OC
59.2 h	2.23 h	0.183 h	0.0333 h	–	COc1ccc(CCNC(=O)OCc2oc(=O)oc2-c2ccccc2)cc1OC

From ChEMBL document CHEMBL1129662, “Investigation of (Oxodioxolenyl)methyl carbamates as nonchiral bioreversible prodrug moieties for chiral amines” (J Med Chem, 1996)
